Measurements taken from US8937078B2, “Quinazolinones as prolyl hydroxylase inhibitors” (Janssen Pharmaceutica NV, priority 2009, dated 2015).

Assays:
Hep-3B cells = experiment: Cellular assay: erythropoietin secretion in Hep-3B cells; format: cell-based, human; details: 100 μM compound, 24 hours, percent of EPO secretion relative to assay control compound 7-[(4-Chloro-phenyl)-(5-methyl-isoxazol-3-ylamino)-methyl]-quinolin-8-ol; for Emax at 100 µM: Homo sapiens, Hep3B, read-out: Cellular % EPO Stimulation
How it was run: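 Hep-3B cells in DMEM with 10% FBS, treated 24 h after plating with compounds at 100 μM final for a further 24 h. Secreted EPO in supernatant measured by MSD electrochemiluminescence sandwich immunoassay with anti-EPO detection antibody.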

human PHD2 (PHD2181-417) = molecular target: T1, human PHD2 (PHD2181-417) (Homo sapiens, UniProt Q9GZT9); experiment: PHD enzymatic assay ([14C]-succinic acid production); format: biochemical; details: PHD2181-417, HIF-1α peptide 10 μM, average of results; for IC50: read-out: Enzyme pIC50 (converted)
T1 construct: Smt (SUMO) tag (cleaved yes); made in house; host or cells: E. coli BL21 (pBAD vector)
How it was run: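 Activity measured as [14C]-succinic acid formed from [5-14C]-2-oxoglutarate over 10 minutes, with peptide substrate at 10 μM, in Tris-HCl pH 7.5 buffer containing catalase, DTT and ascorbate. Unreacted oxoglutarate removed by DNP derivatisation; supernatant beta-counted.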

T1 sequence (Q9GZT9 181-417): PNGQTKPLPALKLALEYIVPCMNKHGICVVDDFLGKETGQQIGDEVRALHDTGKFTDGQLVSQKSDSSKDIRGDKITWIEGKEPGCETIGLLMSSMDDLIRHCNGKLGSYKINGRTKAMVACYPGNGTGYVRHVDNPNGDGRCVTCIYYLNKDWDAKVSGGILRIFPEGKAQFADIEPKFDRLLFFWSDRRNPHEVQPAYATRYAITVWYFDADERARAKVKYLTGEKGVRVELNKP

IC50 (human PHD2 (PHD2181-417)) | SMILES | Emax at 100 µM (Hep-3B cells) | Cellular % EPO Stimulation (Hep-3B cells) | Enzyme pIC50 (human PHD2 (PHD2181-417))
63.1 nM | O=C(O)c1cnn(-c2nc3cc(Oc4ccccc4)ccc3c(=O)[nH]2)c1 [Example 66, 1-(4-Oxo-7-phenoxy-3,4-dihydro-quinazolin-2-yl)-1H-pyrazole-4-carboxylic acid] | 41% |  | 
 | NC(CO)(CO)CO.O=C(O)c1cnn(-c2nc3cc(C4CCOCC4)ccc3c(=O)[nH]2)c1 [Example 67, 1-[4-Oxo-7-(tetrahydro-pyran-4-yl)-3,4-dihydro-quinazolin-2-yl]-1H-pyrazole-4-carboxylic acid tris(hydroxymethyl)aminomethane salt] |  | 18% | 7.8
20 nM | O=C(O)c1cnn(-c2nc3cc(Cl)c(-c4ccccc4)cc3c(=O)[nH]2)c1 [Example 68, 1-(7-Chloro-4-oxo-6-phenyl-3,4-dihydro-quinazolin-2-yl)-1H-pyrazole-4-carboxylic acid] | 59% |  | 
 | Cc1ccccc1-c1ccc2nc(-n3cc(C(=O)O)cn3)[nH]c(=O)c2c1 [Example 69, 1-(4-Oxo-6-o-tolyl-3,4-dihydro-quinazolin-2-yl)-1H-pyrazole-4-carboxylic acid] | 57% |  | 8.1
31.6 nM | O=C(O)c1cnn(-c2nc3ccc(-c4cccc(-c5ccccc5)c4)cc3c(=O)[nH]2)c1 [Example 70, 1-(6-Biphenyl-3-yl-4-oxo-3,4-dihydro-quinazolin-2-yl)-1H-pyrazole-4-carboxylic acid] | 41% |  | 
15.8 nM | COc1ccc(S(=O)(=O)c2cc3c(=O)[nH]c(-n4cc(C(=O)O)cn4)nc3cc2Cl)cc1OC [Example 71, 1-[7-Chloro-6-(3,4-dimethoxy-benzenesulfonyl)-4-oxo-3,4-dihydro-quinazolin-2-yl]-1H-pyrazole-4-carboxylic acid] | 16% |  | 
50.1 nM | CC(C)(C)c1ccc(S(=O)(=O)c2cc3c(=O)[nH]c(-n4cc(C(=O)O)cn4)nc3cc2Cl)cc1 [Example 72, 1-[6-(4-tert-Butyl-benzenesulfonyl)-7-chloro-4-oxo-3,4-dihydro-quinazolin-2-yl]-1H-pyrazole-4-carboxylic acid] | 22% |  | 
31.6 nM | O=C(O)c1cnn(-c2nc3ccc(COc4ccccc4)cc3c(=O)[nH]2)c1 [Example 74, 1-(4-Oxo-6-phenoxymethyl-3,4-dihydro-quinazolin-2-yl)-1H-pyrazole-4-carboxylic acid] | 35% |  | 
20 nM | Cc1cccc(C)c1OCc1ccc2nc(-n3cc(C(=O)O)cn3)[nH]c(=O)c2c1 [Example 75, 1-[6-(2,6-Dimethyl-phenoxymethyl)-4-oxo-3,4-dihydro-quinazolin-2-yl]-1H-pyrazole-4-carboxylic acid] | 20% |  | 
31.6 nM | C#Cc1ccc2nc(-n3cc(C(=O)O)cn3)[nH]c(=O)c2c1 [Example 76, 1-(6-Ethynyl-4-oxo-3,4-dihydro-quinazolin-2-yl)-1H-pyrazole-4-carboxylic acid] | 16% |  | 
25.1 nM | C=C(Cl)c1ccc2nc(-n3cc(C(=O)O)cn3)[nH]c(=O)c2c1 [Example 77, 1-[6-(1-Chloro-vinyl)-4-oxo-3,4-dihydro-quinazolin-2-yl]-1H-pyrazole-4-carboxylic acid] | 27% |  | 
39.8 nM | O=C(O)c1cnn(-c2nc3cc(Sc4ccccc4)ccc3c(=O)[nH]2)c1 [Example 78, 1-(4-Oxo-7-phenylsulfanyl-3,4-dihydro-quinazolin-2-yl)-1H-pyrazole-4-carboxylic acid] | 5% |  | 
39.8 nM | O=C(O)c1cnn(-c2nc3cc(Sc4ccc(Cl)cc4)ccc3c(=O)[nH]2)c1 [Example 79, 1-[7-(4-Chloro-phenylsulfanyl)-4-oxo-3,4-dihydro-quinazolin-2-yl]-1H-pyrazole-4-carboxylic acid] | 6% |  | 
31.6 nM | O=C(O)c1cnn(-c2nc3cc(Sc4ccccc4Cl)ccc3c(=O)[nH]2)c1 [Example 80, 1-[7-(2-Chloro-phenylsulfanyl)-4-oxo-3,4-dihydro-quinazolin-2-yl]-1H-pyrazole-4-carboxylic acid] | 5% |  | 
79.4 nM | O=C(O)c1cnn(-c2nc3cc(S(=O)(=O)c4ccccc4)ccc3c(=O)[nH]2)c1 [Example 81, 1-(7-Benzenesulfonyl-4-oxo-3,4-dihydro-quinazolin-2-yl)-1H-pyrazole-4-carboxylic acid] | 26% |  | 
63.1 nM | O=C(O)c1cnn(-c2nc3cc(S(=O)(=O)c4ccc(Cl)cc4)ccc3c(=O)[nH]2)c1 [Example 82, 1-[7-(4-Chloro-benzenesulfonyl)-4-oxo-3,4-dihydro-quinazolin-2-yl]-1H-pyrazole-4-carboxylic acid] | 15% |  | 
100 nM | O=C(O)c1cnn(-c2nc3cc(S(=O)(=O)c4ccccc4Cl)ccc3c(=O)[nH]2)c1 [Example 83, 1-[7-(2-Chloro-benzenesulfonyl)-4-oxo-3,4-dihydro-quinazolin-2-yl]-1H-pyrazole-4-carboxylic acid] | 11% |  | 
20 nM | O=C(O)c1cnn(-c2nc3cc(Cl)c(N4CCc5ccccc5C4)cc3c(=O)[nH]2)c1 [Example 84, 1-[7-Chloro-6-(3,4-dihydro-1H-isoquinolin-2-yl)-4-oxo-3,4-dihydro-quinazolin-2-yl]-1H-pyrazole-4-carboxylic acid] | 101% |  | 
25.1 nM | O=C(O)c1cnn(-c2nc3cc(Cl)c(N4CCc5ccc(Br)cc5C4)cc3c(=O)[nH]2)c1 [Example 85, 1-[6-(7-Bromo-3,4-dihydro-1H-isoquinolin-2-yl)-7-chloro-4-oxo-3,4-dihydro-quinazolin-2-yl]-1H-pyrazole-4-carboxylic acid] | 49% |  | 
20 nM | O=C(O)c1cnn(-c2nc3cc(F)c(Oc4cc(Cl)ccc4Cl)cc3c(=O)[nH]2)c1 [Example 87, 1-[6-(2,5-dichloro-phenoxy)-7-fluoro-4-oxo-3,4-dihydro-quinazolin-2-yl]-1H-pyrazole-4-carboxylic acid] | 84% |  | 
15.8 nM | Cc1ccc(Oc2cc3c(=O)[nH]c(-n4cc(C(=O)O)cn4)nc3cc2F)cc1C [Example 88, 1-[6-(3,4-dimethyl-phenoxy)-7-fluoro-4-oxo-3,4-dihydro-quinazolin-2-yl]-1H-pyrazole-4-carboxylic acid] | 95% |  | 
25.1 nM | Cc1cc(C)cc(Oc2cc3c(=O)[nH]c(-n4cc(C(=O)O)cn4)nc3cc2C)c1 [Example 89, 1-[6-(3,5-dimethyl-phenoxy)-7-methyl-4-oxo-3,4-dihydro-quinazolin-2-yl]-1H-pyrazole-4-carboxylic acid] | 137% |  | 
25.1 nM | Cc1cc2nc(-n3cc(C(=O)O)cn3)[nH]c(=O)c2cc1Oc1cc(Cl)ccc1Cl [Example 90, 1-[6-(2,5-dichloro-phenoxy)-7-methyl-4-oxo-3,4-dihydro-quinazolin-2-yl]-1H-pyrazole-4-carboxylic acid] | 113% |  | 
25.1 nM | Cc1cc2nc(-n3cc(C(=O)O)cn3)[nH]c(=O)c2cc1Oc1cccc(-c2ccccc2)c1 [Example 91, 1-[6-(biphenyl-3-yloxy)-7-methyl-4-oxo-3,4-dihydro-quinazolin-2-yl]-1H-pyrazole-4-carboxylic acid] | 75% |  | 
